Measurements taken from patent US12365696B2, “Small-molecule focal adhesion kinase (FAK) inhibitors” (DANA-FARBER CANCER INSTITUTE, INC., priority 2019, dated 2025).

Columns and labels:
Assay in all cases: KINOMEscan
Type in all cases: binding
[1] = target: ABL1(T315I)-nonphosphorylated (Homo sapiens (Human), UniProt P00519, T315I); conditions: 10000 nM, read-out: Percent Control
ADCK4 = ADCK4 (Homo sapiens (Human), UniProt Q96D53); conditions: ADCK4, 10000 nM; read-out: Percent Control
AKT1 = AKT1 (Homo sapiens (Human), UniProt P31749); conditions: AKT1, 10000 nM; read-out: Percent Control
AKT2 = AKT2 (Homo sapiens (Human), UniProt P31751); conditions: AKT2, 10000 nM; read-out: Percent Control
ALK = ALK (Homo sapiens (Human), UniProt Q9UM73); conditions: 10000 nM, read-out: Percent Control
ANKK1 = ANKK1 (Homo sapiens (Human), UniProt Q8NFD2); conditions: ANKK1, 10000 nM; read-out: Percent Control
BIKE = BIKE (Homo sapiens (Human), UniProt Q9NSY1); conditions: 10000 nM, read-out: Percent Control
CDK4 = CDK4 (Homo sapiens (Human), UniProt P11802); conditions: CDK4, 10000 nM; read-out: Percent Control
CDK4-cyclinD3 = CDK4-cyclinD3 (Homo sapiens (Human), UniProt P11802); conditions: CDK4-cyclinD3, 10000 nM; read-out: Percent Control
CSF1R = CSF1R (Homo sapiens (Human), UniProt P07333); conditions: 10000 nM, read-out: Percent Control
CTK = CTK (Homo sapiens (Human), UniProt P42679); conditions: 10000 nM, read-out: Percent Control
DCAMKL2 = DCAMKL2 (Homo sapiens (Human), UniProt Q8N568); conditions: DCAMKL2, 10000 nM; read-out: Percent Control
DDR1 = DDR1 (Homo sapiens (Human), UniProt Q08345); conditions: DDR1, 10000 nM; read-out: Percent Control
EGFR(T790M) = EGFR(T790M) (Homo sapiens (Human), UniProt P00533, T790M); conditions: 10000 nM, read-out: Percent Control
EPHA8 = EPHA8 (Homo sapiens (Human), UniProt P29322); conditions: EPHA8, 10000 nM; read-out: Percent Control
EPHB1 = EPHB1 (Homo sapiens (Human), UniProt P54762); conditions: EPHB1, 10000 nM; read-out: Percent Control
ERK2 = ERK2 (Homo sapiens (Human), UniProt P28482); conditions: ERK2, 10000 nM; read-out: Percent Control
HIPK1 = HIPK1 (Homo sapiens (Human), UniProt Q86Z02); conditions: HIPK1, 10000 nM; read-out: Percent Control
IKK-beta = IKK-beta (Homo sapiens (Human), UniProt O14920); conditions: 10000 nM, read-out: Percent Control
INSR = INSR (Homo sapiens (Human), UniProt P06213); conditions: 10000 nM, read-out: Percent Control
MAK = MAK (Homo sapiens (Human), UniProt P20794); conditions: 10000 nM, read-out: Percent Control
MAP3K15 = MAP3K15 (Homo sapiens (Human), UniProt Q6ZN16); conditions: MAP3K15, 10000 nM; read-out: Percent Control
MET = MET (Homo sapiens (Human), UniProt P08581); conditions: 10000 nM, read-out: Percent Control
MKNK2 = MKNK2 (Homo sapiens (Human), UniProt Q9HBH9); conditions: MKNK2, 10000 nM; read-out: Percent Control
MLK2 = MLK2 (Homo sapiens (Human), UniProt Q02779); conditions: MLK2, 10000 nM; read-out: Percent Control
MRCKA = MRCKA (Homo sapiens (Human), UniProt Q5VT25); conditions: 10000 nM, read-out: Percent Control
MYO3B = MYO3B (Homo sapiens (Human), UniProt Q8WXR4); conditions: 10000 nM, read-out: Percent Control
PDGFRA = PDGFRA (Homo sapiens (Human), UniProt P16234); conditions: 10000 nM, read-out: Percent Control
PIK3CB = PIK3CB (Homo sapiens (Human), UniProt P42338); conditions: 10000 nM, read-out: Percent Control
PIM1 = PIM1 (Homo sapiens (Human), UniProt P11309); conditions: PIM1, 10000 nM; read-out: Percent Control
ROS1 = ROS1 (Homo sapiens (Human), UniProt P08922); conditions: ROS1, 10000 nM; read-out: Percent Control
[2] = target: RSK4(Kin.Dom.1-N-terminal) (Homo sapiens (Human), UniProt Q9UK32); conditions: 10000 nM, read-out: Percent Control
SLK = SLK (Homo sapiens (Human), UniProt Q9H2G2); conditions: 10000 nM, read-out: Percent Control
STK33 = STK33 (Homo sapiens (Human), UniProt Q9BYT3); conditions: STK33, 10000 nM; read-out: Percent Control
TRPM6 = TRPM6 (Homo sapiens (Human), UniProt Q9BX84); conditions: TRPM6, 10000 nM; read-out: Percent Control

Sequence of DCAMKL2 (Q8N568 whole entry, looked up): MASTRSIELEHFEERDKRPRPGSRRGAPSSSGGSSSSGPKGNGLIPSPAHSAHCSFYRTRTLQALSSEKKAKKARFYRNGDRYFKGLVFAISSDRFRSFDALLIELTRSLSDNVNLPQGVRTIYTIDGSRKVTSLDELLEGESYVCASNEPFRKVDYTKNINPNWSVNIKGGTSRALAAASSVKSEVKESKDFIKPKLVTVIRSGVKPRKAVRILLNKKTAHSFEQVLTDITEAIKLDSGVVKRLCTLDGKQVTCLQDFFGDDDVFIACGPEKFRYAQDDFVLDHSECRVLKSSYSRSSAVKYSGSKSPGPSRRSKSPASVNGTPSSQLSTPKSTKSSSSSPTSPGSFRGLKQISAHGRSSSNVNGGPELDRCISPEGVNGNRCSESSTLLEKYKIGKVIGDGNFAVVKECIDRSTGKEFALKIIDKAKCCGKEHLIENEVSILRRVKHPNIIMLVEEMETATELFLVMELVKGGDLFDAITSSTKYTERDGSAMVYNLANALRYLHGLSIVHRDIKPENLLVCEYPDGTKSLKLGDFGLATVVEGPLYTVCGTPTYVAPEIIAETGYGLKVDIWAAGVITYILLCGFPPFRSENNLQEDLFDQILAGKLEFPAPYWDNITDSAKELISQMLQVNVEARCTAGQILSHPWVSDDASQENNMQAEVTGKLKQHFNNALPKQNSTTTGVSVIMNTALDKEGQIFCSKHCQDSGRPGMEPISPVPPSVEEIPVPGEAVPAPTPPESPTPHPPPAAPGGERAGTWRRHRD
Sequence of ROS1 (P08922 28-2347): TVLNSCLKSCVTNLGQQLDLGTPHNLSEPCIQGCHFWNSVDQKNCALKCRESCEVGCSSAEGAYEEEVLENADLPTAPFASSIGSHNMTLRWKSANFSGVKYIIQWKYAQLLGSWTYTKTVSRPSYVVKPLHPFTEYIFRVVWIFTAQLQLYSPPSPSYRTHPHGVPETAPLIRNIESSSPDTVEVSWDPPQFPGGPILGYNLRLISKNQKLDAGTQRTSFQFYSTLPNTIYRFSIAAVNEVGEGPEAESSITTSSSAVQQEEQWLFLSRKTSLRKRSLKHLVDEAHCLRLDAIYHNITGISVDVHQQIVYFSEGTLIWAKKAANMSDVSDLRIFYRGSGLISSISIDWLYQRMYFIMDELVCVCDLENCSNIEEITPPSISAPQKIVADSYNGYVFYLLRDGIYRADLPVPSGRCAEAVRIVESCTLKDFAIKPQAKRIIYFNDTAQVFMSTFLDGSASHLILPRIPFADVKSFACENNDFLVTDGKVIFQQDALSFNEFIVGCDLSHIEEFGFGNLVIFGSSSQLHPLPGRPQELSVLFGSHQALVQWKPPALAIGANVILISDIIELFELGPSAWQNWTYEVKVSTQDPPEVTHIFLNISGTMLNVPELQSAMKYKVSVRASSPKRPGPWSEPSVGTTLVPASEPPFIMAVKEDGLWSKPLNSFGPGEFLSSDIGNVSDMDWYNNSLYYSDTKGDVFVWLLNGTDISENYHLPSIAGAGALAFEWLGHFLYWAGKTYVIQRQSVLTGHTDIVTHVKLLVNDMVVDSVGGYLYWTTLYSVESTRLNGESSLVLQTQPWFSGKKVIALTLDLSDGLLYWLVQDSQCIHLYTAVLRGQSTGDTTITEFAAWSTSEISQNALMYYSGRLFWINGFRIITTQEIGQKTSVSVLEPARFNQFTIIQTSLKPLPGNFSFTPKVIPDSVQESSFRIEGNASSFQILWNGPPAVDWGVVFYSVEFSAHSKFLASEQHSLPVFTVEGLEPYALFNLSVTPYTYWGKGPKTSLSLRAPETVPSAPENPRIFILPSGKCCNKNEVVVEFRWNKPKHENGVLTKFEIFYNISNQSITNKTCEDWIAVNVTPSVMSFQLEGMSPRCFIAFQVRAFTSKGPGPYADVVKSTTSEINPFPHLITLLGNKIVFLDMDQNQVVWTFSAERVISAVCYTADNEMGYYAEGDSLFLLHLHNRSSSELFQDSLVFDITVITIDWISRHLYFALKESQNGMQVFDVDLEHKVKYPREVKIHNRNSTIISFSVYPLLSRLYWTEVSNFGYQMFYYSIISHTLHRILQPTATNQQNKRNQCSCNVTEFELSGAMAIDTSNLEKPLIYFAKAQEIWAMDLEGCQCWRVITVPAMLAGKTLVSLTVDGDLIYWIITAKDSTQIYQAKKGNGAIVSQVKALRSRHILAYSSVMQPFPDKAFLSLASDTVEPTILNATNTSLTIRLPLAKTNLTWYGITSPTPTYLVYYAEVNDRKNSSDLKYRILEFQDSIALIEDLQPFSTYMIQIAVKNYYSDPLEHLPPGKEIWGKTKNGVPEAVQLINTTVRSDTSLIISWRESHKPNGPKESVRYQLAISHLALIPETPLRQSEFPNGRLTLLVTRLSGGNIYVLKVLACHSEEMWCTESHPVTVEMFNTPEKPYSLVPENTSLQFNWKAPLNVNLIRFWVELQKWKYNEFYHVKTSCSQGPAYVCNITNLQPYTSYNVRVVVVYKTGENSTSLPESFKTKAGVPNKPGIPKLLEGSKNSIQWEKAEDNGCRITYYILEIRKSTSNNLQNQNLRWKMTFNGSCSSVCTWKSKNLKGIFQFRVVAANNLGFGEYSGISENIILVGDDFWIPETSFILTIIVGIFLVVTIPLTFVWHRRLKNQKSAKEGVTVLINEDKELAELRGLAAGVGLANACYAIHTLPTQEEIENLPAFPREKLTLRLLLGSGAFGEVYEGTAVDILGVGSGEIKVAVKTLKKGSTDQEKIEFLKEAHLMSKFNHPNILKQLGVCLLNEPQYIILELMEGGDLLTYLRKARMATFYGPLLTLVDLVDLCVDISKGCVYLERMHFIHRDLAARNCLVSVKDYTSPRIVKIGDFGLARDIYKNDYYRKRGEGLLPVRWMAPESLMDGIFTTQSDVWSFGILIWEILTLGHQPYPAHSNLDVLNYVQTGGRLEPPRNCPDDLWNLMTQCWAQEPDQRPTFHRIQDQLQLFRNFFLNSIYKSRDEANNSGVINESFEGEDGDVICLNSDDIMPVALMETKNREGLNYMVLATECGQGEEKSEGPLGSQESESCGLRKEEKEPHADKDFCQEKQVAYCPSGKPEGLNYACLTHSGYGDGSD
Sequence of AKT2 (P31751 whole entry): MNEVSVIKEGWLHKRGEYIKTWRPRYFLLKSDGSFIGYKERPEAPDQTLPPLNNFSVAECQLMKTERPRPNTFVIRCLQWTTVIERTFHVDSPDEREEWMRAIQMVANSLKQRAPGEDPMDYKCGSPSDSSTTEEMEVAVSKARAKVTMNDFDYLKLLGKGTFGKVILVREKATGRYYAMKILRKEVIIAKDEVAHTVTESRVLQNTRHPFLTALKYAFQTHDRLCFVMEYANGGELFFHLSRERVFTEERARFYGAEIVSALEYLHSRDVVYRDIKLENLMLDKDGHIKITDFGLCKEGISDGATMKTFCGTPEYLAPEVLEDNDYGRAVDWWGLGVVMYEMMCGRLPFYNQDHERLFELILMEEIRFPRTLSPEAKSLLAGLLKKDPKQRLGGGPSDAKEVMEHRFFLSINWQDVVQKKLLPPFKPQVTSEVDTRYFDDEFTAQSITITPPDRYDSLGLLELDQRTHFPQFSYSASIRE
Sequence of AKT1 (P31749 whole entry): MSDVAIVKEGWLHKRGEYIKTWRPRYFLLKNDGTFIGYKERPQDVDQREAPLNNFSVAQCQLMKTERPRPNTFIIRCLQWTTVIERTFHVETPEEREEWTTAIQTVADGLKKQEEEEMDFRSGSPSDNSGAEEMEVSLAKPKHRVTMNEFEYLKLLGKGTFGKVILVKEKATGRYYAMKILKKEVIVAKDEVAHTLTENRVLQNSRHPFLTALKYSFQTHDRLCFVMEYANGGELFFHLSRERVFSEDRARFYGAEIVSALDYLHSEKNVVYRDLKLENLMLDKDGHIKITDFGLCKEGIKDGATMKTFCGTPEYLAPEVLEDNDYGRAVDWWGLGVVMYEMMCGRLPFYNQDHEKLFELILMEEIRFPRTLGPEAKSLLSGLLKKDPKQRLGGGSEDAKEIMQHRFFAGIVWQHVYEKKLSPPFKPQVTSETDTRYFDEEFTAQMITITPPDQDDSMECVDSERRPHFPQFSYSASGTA
Sequence of EPHA8 (P29322 28-1005): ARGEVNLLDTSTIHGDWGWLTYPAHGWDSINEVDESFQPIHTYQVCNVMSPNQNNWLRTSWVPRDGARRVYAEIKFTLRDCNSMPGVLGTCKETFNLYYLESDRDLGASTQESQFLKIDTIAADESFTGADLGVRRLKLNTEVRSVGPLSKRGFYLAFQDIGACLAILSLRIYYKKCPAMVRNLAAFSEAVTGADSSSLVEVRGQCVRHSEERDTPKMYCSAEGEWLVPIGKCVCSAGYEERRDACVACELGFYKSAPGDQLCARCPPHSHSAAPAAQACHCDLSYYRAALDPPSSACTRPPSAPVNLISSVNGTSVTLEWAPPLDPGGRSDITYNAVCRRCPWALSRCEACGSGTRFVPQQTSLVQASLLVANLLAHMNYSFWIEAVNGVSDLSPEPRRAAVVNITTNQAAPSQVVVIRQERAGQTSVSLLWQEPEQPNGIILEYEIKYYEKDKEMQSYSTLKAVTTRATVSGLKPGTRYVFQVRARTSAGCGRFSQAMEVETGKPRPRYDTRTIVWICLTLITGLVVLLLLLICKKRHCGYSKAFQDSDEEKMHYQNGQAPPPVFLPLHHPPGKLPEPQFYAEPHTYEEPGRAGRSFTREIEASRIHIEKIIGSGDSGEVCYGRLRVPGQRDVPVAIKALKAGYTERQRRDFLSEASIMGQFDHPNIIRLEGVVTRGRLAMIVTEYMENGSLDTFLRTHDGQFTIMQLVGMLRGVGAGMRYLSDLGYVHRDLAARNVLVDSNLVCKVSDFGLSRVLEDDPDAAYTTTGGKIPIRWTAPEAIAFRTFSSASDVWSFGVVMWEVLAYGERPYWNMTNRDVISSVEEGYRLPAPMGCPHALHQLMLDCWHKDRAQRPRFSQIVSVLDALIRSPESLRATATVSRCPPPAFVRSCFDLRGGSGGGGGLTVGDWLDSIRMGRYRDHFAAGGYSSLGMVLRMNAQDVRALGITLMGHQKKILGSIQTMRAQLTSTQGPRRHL

SMILES	remaining binding at 10 µM [1]	remaining binding at 10 µM (ADCK4)	remaining binding at 10 µM (AKT1)	remaining binding at 10 µM (AKT2)	remaining binding at 10 µM (ALK)	remaining binding at 10 µM (ANKK1)	remaining binding at 10 µM (BIKE)	remaining binding at 10 µM (CDK4)	remaining binding at 10 µM (CDK4-cyclinD3)	remaining binding at 10 µM (CSF1R)	remaining binding at 10 µM (CTK)	remaining binding at 10 µM (DCAMKL2)	remaining binding at 10 µM (DDR1)	remaining binding at 10 µM (EGFR(T790M))	remaining binding at 10 µM (EPHA8)	remaining binding at 10 µM (EPHB1)	remaining binding at 10 µM (ERK2)	remaining binding at 10 µM (HIPK1)	remaining binding at 10 µM (IKK-beta)	remaining binding at 10 µM (INSR)	further results
COc1cc(N2CCC(N3CCN(C)CC3)CC2)ccc1Nc1ncc2c(n1)N(C)c1sc(C)nc1C(=O)N2 [Compound 3, 6-((2-methoxy-4-(4-(4-methylpiperazin-1-yl)piperidin-1-yl)phenyl)amino)-2,4-dimethyl-4,9-dihydro-10H-pyrimido[5,4-b]thiazolo[5,4-e][1,4]diazepin-10-one]	100%	83%	89%	75%	100%	80%	73%	100%	95%	36%	98%	87%	89%	100%	64%	48%	60%	83%	100%	83%	remaining binding at 10 µM (MAK): 71%; remaining binding at 10 µM (MAP3K15): 90%; remaining binding at 10 µM (MET): 92%; remaining binding at 10 µM (MKNK2): 80%; remaining binding at 10 µM (MLK2): 96%; remaining binding at 10 µM (MRCKA): 98%; remaining binding at 10 µM (MYO3B): 74%; remaining binding at 10 µM (PDGFRA): 100%; remaining binding at 10 µM (PIK3CB): 97%; remaining binding at 10 µM (PIM1): 70%; remaining binding at 10 µM (ROS1): 74%; remaining binding at 10 µM [2]: 100%; remaining binding at 10 µM (SLK): 70%; remaining binding at 10 µM (STK33): 84%; remaining binding at 10 µM (TRPM6): 100%
COc1cc(N2CCC(N3CCN(C)CC3)CC2)ccc1Nc1ncc2c(n1)N(C)c1sc(C)nc1C(=O)N2C [Compound 5, 6-((2-methoxy-4-(4-(4-methylpiperazin-1-yl)piperidin-1-yl)phenyl)amino)-2,4,9-trimethyl-4,9-dihydro-10H-pyrimido[5,4-b]thiazolo[5,4-e][1,4]diazepin-10-one]	100%	73%	100%	100%	99%	92%	100%	100%	100%	80%	96%	3%	100%	93%	100%	93%	98%	94%	96%	40%	remaining binding at 10 µM (MAK): 100%; remaining binding at 10 µM (MAP3K15): 84%; remaining binding at 10 µM (MET): 97%; remaining binding at 10 µM (MKNK2): 90%; remaining binding at 10 µM (MLK2): 76%; remaining binding at 10 µM (MRCKA): 84%; remaining binding at 10 µM (MYO3B): 100%; remaining binding at 10 µM (PDGFRA): 88%; remaining binding at 10 µM (PIK3CB): 87%; remaining binding at 10 µM (PIM1): 97%; remaining binding at 10 µM (ROS1): 75%; remaining binding at 10 µM [2]: 91%; remaining binding at 10 µM (SLK): 100%; remaining binding at 10 µM (STK33): 10%; remaining binding at 10 µM (TRPM6): 92%
